Reference: PMC6770006, “Novel Heat Shock Protein 90 Inhibitors Suppress P-Glycoprotein Activity and Overcome Multidrug Resistance in Cancer Cells” (International Journal of Molecular Sciences, 2019)

Legend:
NCI-H460/R cells = experiment: MTT assay, cell growth inhibition, NCI-H460/R (MDR); format: cell-based, human; details: for Efficacy in MDR NCI-H460/R cells compared with sensitive NCI-H460: 72 h; for IC50: Homo sapiens, NCI-H460, 72 h, MDR cells
Method: (§1) A series of 3-aryl-naphtho[2,3-d]isoxazole-4,9-diones were synthesized (Scheme 1, Figure 1) and their growth inhibition activity was tested in vitro on human non-small cell lung carcinoma NCI-H460, colorectal carcinoma DLD1 and their corresponding MDR cells (NCI-H460/R and DLD1-TxR, respectively), as well as normal embryonic lung fibroblasts MRC-5. The differences in cell growth inhibition between cancer and normal cells obtained by the MTT assay after 72 h treatment are presented in Table 1. The effect of compounds is presented as IC50 values that correspond to the 50% of cell growth inhibition.
(§2) Human colorectal carcinoma (DLD1), non-small cell lung carcinoma (NCI-H460), and normal embryonic lung fibroblast (MRC-5) cell lines were purchased from the American Type Culture Collection, Rockville, MD. P-gp overexpressing multidrug resistant DLD1-TxR cells were selected by continuous exposure to stepwise increasing concentrations of paclitaxel from DLD1 cells, while NCI-H460/R cells were selected from NCI-H460 cells after DOX selective pressure. MDR cancer cell lines, DLD1-TxR and NCI-H460/R, and their sensitive counterparts were maintained in RPMI 1640 medium supplemented with 10% FBS, 2 mM L-glutamine, and 10,000 U/mL penicillin, 10 mg/mL streptomycin, 25 mg/mL amphotericin B solutions. MRC-5 cells were cultured in DMEM supplemented with 10% FBS, 4 g/L glucose, 2 mM L-glutamine and 5000 U/mL penicillin, 5 mg/mL streptomycin solution. All cell lines were sub-cultured at 72 h intervals using 0.25% trypsin/EDTA and seeded into a fresh medium at 8000 cells/cm^2. All cell lines were maintained at 37 °C in a humidified 5% CO2 atmosphere.
(§3) Cell viability was assessed by the MTT assay (AppliChem GmbH, Darmstadt, Germany). Cells grown in 25 cm^2 tissue flasks were trypsinized and 1000 cells/well were seeded into flat-bottomed 96-well tissue culture plates and incubated overnight. Subsequently, the cells were treated with increasing concentrations of Hsp90 inhibitors for 72 h: compound 3 (0.1–2.5 µM), compound 4 (0.25–5 µM), compound 5 (0.5–25 µM), compound 6 (50–1000 nM), compound 7 (10–250 nM), compound 8 (0.25–5 µM), compound 9 (10–250 nM), compound 10 (0.5–25 µM), compound 13 (0.5–10 µM), compound 14 (1–25 µM), and compound 15 (10–250 nM). […] After treatment, MTT was added to each well in a final concentration of 0.2 mg/mL for 4 h. Formazan product was dissolved in 200 µl of DMSO, and the absorbance was measured at 540 nm using an automatic LKB 5060-006 Micro Plate Reader (Vienna, Austria). IC50 value was defined as a concentration of the drug that inhibited cell growth by 50% and was calculated by nonlinear regression analysis using GraphPad Prism 6.0 for Windows (La Jolla, CA, USA). Relative selectivity towards cancer cells was calculated as a relation between IC50 value obtained in MRC-5 cells and an average IC50 value from four tested cancer cell lines.

[1] = system: NCI-H460, NCI-H460/R, DLD1, DLD1-TxR cells; experiment: MTT assay, grouping of inhibitors by IC50 over the cancer cell lines; format: cell-based; details: Homo sapiens, Figure 2b, read-out: IC50 values (grouping for Pearson correlation)
Method: When the IC50 values obtained by the MTT assay were compared to Hsp90 affinity binding IC50 values (Table 1), a positive Pearson correlation (r > 0.5) was found for all cancer cell lines (Figure 2b).
as §3

DLD1-TxR cells = experiment: MTT assay, cell growth inhibition, DLD1-TxR (MDR); format: cell-based, human; details: 72 h; for IC50: Homo sapiens, MDR cells
Method: as §1, §2, §3

P-gp = P-gp (Homo sapiens, UniProt P08183); experiment: Rhodamine 123 accumulation assay (P-gp activity, flow cytometry); format: cell-based; set-up: P-gp overexpressing multidrug resistant DLD1-TxR cells were selected by continuous exposure to stepwise increasing concentrations of paclitaxel from DLD1 cells; endogenous in cells; host or cells: NCI-H460/R and DLD1-TxR (drug-selected MDR human cancer cells); details: 30 min, Figure 3a; for P-gp activity / Rho 123 accumulation: MDR NCI-H460/R and DLD1-TxR cells, one concentration per compound (100 nM-10 µM)
Chain of P-gp (P08183 whole entry): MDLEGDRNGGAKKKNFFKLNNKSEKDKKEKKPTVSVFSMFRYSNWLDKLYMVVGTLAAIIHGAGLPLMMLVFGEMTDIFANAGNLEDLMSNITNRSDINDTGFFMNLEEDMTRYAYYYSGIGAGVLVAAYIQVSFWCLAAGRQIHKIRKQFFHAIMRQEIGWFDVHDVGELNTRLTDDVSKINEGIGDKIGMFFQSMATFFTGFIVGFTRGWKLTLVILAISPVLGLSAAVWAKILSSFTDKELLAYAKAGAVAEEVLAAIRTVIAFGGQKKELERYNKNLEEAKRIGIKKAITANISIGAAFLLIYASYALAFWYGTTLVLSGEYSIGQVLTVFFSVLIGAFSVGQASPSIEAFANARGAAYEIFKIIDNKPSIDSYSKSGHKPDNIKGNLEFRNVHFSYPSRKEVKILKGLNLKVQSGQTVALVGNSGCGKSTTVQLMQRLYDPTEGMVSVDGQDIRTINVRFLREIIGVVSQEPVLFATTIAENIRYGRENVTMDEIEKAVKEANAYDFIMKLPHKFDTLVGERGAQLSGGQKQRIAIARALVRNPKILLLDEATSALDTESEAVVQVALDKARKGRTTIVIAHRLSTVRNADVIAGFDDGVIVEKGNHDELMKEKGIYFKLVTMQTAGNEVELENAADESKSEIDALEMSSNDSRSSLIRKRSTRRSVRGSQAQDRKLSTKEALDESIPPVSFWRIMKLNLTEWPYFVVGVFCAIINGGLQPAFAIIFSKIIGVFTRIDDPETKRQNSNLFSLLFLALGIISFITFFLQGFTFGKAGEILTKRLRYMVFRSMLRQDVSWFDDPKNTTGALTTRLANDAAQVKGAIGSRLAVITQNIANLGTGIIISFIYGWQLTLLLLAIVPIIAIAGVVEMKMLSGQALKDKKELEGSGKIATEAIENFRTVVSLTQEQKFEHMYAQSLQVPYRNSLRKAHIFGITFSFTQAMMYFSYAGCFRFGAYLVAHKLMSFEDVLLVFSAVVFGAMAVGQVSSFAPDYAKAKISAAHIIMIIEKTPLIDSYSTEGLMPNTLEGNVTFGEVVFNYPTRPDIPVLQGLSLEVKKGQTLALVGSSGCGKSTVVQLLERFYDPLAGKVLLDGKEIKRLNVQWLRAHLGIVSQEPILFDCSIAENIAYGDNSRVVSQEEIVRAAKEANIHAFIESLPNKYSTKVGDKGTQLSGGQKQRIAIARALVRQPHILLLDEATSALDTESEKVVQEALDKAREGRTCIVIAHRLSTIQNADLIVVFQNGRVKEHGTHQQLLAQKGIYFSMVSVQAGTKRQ
Method: To study the effect of Hsp90 inhibitors on P-gp activity in MDR cancer cells, intracellular accumulation of the P-gp substrate rhodamine 123 (Rho 123) was analyzed by flow cytometry after 30 min treatment (Figure 3a). A well-known inhibitor of P-gp activity, tariquidar (TQ), was included as a positive control.
The accumulation of Rho 123, a fluorescent P-gp substrate, was measured by flow cytometry. The intensity of the fluorescence is proportional to Rho 123 accumulation in the cell. All cell lines were seeded in adherent 6-well plates and grown overnight. DLD1-TxR and NCI-H460/R cells were treated for 30 min with the following concentrations of Hsp90 inhibitors: 500 nM compound 3, 1 µM compound 4, 10 µM compound 5, 500 nM compound 6, 500 nM compound 7, 1 µM compound 8, 500 nM compound 9, 1 µM compound 10, 1 µM compound 13, 10 µM compound 14, 100 nM compound 15. TQ (10 nM) was used as a positive control for Rho 123 accumulation. Rho 123 (5 μM) was simultaneously added with the investigated compounds and the cells were incubated at 37 °C in 5% CO2 for 30 min. The cells were then trypsinized, pelleted by centrifugation, washed with PBS and placed in ice-cold PBS. The samples were kept on ice in the dark until the analysis on CyFlow Space Partec flow cytometer (Sysmex Partec GmbH, Görlitz, Germany). The fluorescence of Rho 123 was detected on fluorescence channel 1 (FL1-H) at 530 nm. A minimum of 10,000 events were collected for each sample and the obtained results were analyzed using Summit software.

DLD1 cells = experiment: MTT assay, cell growth inhibition, DLD1; format: cell-based; details: Homo sapiens, DLD-1, 72 h
Method: as §1, §3

NCI-H460 cells = experiment: MTT assay, cell growth inhibition, NCI-H460; format: cell-based; details: Homo sapiens, 72 h, three independent experiments
Method: as §1, §3

Hsp90 = system: Hsp90; set-up: method as in PMID 22538015; details: read-out: Hsp90 Affinity binding; cited from earlier work
MRC-5 cells = experiment: MTT assay, normal embryonic lung fibroblasts MRC-5; format: cell-based, human; details: for IC50: Homo sapiens, MRC5, MTT, 72 h, normal fibroblasts, read-out: Cell growth inhibition IC50, MRC-5; for Relative Selectivity: IC50 in MRC-5 cells / average IC50 of four cancer cell lines
Method: as §1, §3

P-gp expression = experiment: Flow cytometric analysis of P-gp expression; format: cell-based, human; details: 72 h; for Change in P-gp expression, DLD1 / Change in P-gp expression, NCI-H460: 5 µM 5, 200 nM 7, 100 nM 9, 10 nM TQ, 50 nM DOX, 50 nM PTX
Method: P-glycoprotein expression level in NCI-H460, NCI-H460/R, DLD1, and DLD1-TxR and cells was measured by flow cytometry. All cell lines were seeded in adherent 6-well plates and treated with Hsp90 inhibitors for 72 h at the following concentrations: 5 µM compound 5, 200 nM compound 7, 100 nM compound 9 (NCI-H460 and DLD1), and 10 µM compound 5, 500 nM compound 7, 500 nM compound 9 (NCI-H460/R and DLD1-TxR). Cells were also treated with 10 nM TQ, a non-competitive P-gp inhibitor, which served as a positive control. In addition, sensitive cells (NCI-H460 and DLD1) were treated with 50 nM DOX and 50 nM PTX that served as positive controls for the induction of P-gp expression. Then, cells were collected by trypsinization, washed with PBS, and directly immunostained by FITC-conjugated anti-P-gp antibody according to the manufacturer’s protocol. The samples were kept in the dark until the analysis on CyFlow Space Partec flow cytometer (Sysmex Partec GmbH, Görlitz, Germany). The fluorescence of FITC-conjugated anti-P-gp was detected on fluorescence channel 1 (FL1-H) at 530 nm. A minimum of 10,000 events were collected for each sample (the gate excluded cell debris and dead cells) and the obtained results were analyzed with Summit software v4.3 (Dako Colorado Inc., Fort Collins, CO, USA).

[2] = 10 µM 5, 500 nM 7, 500 nM 9, 10 nM TQ

| Structure (SMILES) | Efficacy in MDR NCI-H460/R cells compared with sensitive NCI-H460 (NCI-H460/R cells) | IC50 (NCI-H460/R cells) [µM] | IC50 [1] [µM] | Efficacy in MDR DLD1-TxR cells compared with sensitive DLD1 (DLD1-TxR cells) | IC50 (DLD1-TxR cells) [µM] | P-gp activity / Rho 123 accumulation (P-gp) | IC50 (DLD1 cells) [µM] | IC50 (NCI-H460 cells) [µM] | IC50 (Hsp90) [µM] | IC50 (MRC-5 cells) [µM] | P-gp activity / Rho 123 accumulation in DLD1-TxR (P-gp; DLD1-TxR cells) | Relative Selectivity (MRC-5 cells) | Change in P-gp expression, DLD1 (P-gp expression) | Change in P-gp expression, NCI-H460 (P-gp expression) | Change in P-gp expression, DLD1-TxR (P-gp expression; [2]) | Change in P-gp expression, NCI-H460/R (P-gp expression; [2]) |
| --- | --- | --- | --- | --- | --- | --- | --- | --- | --- | --- | --- | --- | --- | --- | --- | --- |
| COc1cccc2c1C(=O)c1c(-c3ccncc3)noc1C2=O [Compound 13] | evaded resistance mechanisms | 1.06 ± 0.012 | ≥ 1 | collateral sensitivity | 1 ± 0.016 | decreased | 1.9 ± 0.036 | 1.25 ± 0.028 | 1.9 | 0.174 ± 0.004 |  |  |  |  |  |  |
| COc1cccc2c1C(=O)c1c(-c3cc[n+](Cc4ccccc4)cc3)noc1C2=O [Compound 14] | further compromised in the presence of MDR phenotype in both cell lines | 23.6 ± 0.47 | ≥ 1 | further compromised in the presence of MDR phenotype in both cell lines | 10.6 ± 0.27 |  | 7.45 ± 0.212 | 0.978 ± 0.018 | 0.34 | 53.3 ± 1.73 | partially restored | 5.00 |  |  |  |  |
| O=C1c2ccccc2C(=O)c2c(-c3ccccc3)noc21 [Compound 3] | better efficacy in cells with MDR phenotype | 0.599 ± 0.02 | < 1 | better efficacy in cells with MDR phenotype | 0.644 ± 0.02 | did not influence the P-gp activity | 0.925 ± 0.032 | 0.785 ± 0.032 | 7.85 | 0.636 ± 0.023 |  |  |  |  |  |  |
| O=C1c2ccccc2C(=O)c2c(-c3ccc(OCCN4CCOCC4)cc3)noc21 [Compound 6] | collateral sensitivity | 0.472 ± 0.018 | < 1 | evaded resistance | 0.439 ± 0.01 | did not have any positive effects | 0.439 ± 0.006 | 0.807 ± 0.035 | 1.2 | 4.74 ± 0.473 |  | 8.79 |  |  |  |  |
| CC(=O)O[C@H]1C(=O)[C@@]2(C)[C@H]([C@H](OC(=O)c3ccccc3)[C@]3(O)C[C@H](OC(=O)[C@H](O)[C@@H](NC(=O)c4ccccc4)c4ccccc4)C(C)=C1C3(C)C)[C@]1(OC(C)=O)CO[C@@H]1C[C@@H]2O [PTX, paclitaxel] |  |  |  |  |  |  |  |  |  |  |  |  | significantly increased P-gp expression | significantly increased P-gp expression |  |  |
| COc1cc2c(cc1OC)CN(CCc1ccc(NC(=O)c3cc(OC)c(OC)cc3NC(=O)c3cnc4ccccc4c3)cc1)CC2 [TQ, tariquidar] |  |  |  |  |  |  |  |  |  |  |  |  | increased P-gp expression | did not influence the P-gp expression | increased P-gp expression | did not influence the P-gp expression |
| COc1ccc(-c2noc3c2C(=O)c2ccccc2C3=O)cc1 [Compound 4] | remained higher than in the corresponding sensitive cells | 0.579 ± 0.018 |  | remained higher than in the corresponding sensitive cells | 1.06 ± 0.025 | did not have any positive effects | 1.52 ± 0.054 | 0.935 ± 0.048 | 5.84 | 1.75 ± 0.083 |  | 1.71 |  |  |  |  |
